Measured values: the NIST ThermoML archive (doi:10.1016/j.jct.2018.05.008)
± gives the expanded uncertainty stated by the source.

Assay: mn = molality of the nth substance listed, in mol/kg
Settings: 101.3 kPa, Liquid, Vibrating tube method

## O [water] + C[C@@H](O)[C@H](N)C(=O)O
310.15 K, m2 = 0
  mass density: 993.32 ± 1 kg/m3

## N[C@@H](CO)C(=O)O [L-serine] + O
288.15 K, m1 = 0.0489
  mass density: 1001.29 ± 1 kg/m3
288.15 K, m1 = 0.104
  mass density: 1003.76 ± 1 kg/m3
288.15 K, m1 = 0.2
  mass density: 1008.02 ± 1 kg/m3
288.15 K, m1 = 0.292
  mass density: 1012.04 ± 1 kg/m3
288.15 K, m1 = 0.3911
  mass density: 1016.28 ± 1 kg/m3
288.15 K, m1 = 0.471
  mass density: 1019.63 ± 1 kg/m3
288.15 K, m1 = 0.5884
  mass density: 1024.47 ± 1 kg/m3
288.15 K, m1 = 0.6788
  mass density: 1028.16 ± 1 kg/m3
288.15 K, m1 = 0.7168
  mass density: 1029.64 ± 1 kg/m3
298.15 K, m1 = 0.0489
  mass density: 999.22 ± 1 kg/m3
298.15 K, m1 = 0.104
  mass density: 1001.64 ± 1 kg/m3
298.15 K, m1 = 0.2
  mass density: 1005.81 ± 1 kg/m3
298.15 K, m1 = 0.292
  mass density: 1009.76 ± 1 kg/m3
298.15 K, m1 = 0.3911
  mass density: 1013.93 ± 1 kg/m3
298.15 K, m1 = 0.471
  mass density: 1017.22 ± 1 kg/m3
298.15 K, m1 = 0.5884
  mass density: 1021.98 ± 1 kg/m3
298.15 K, m1 = 0.6788
  mass density: 1025.59 ± 1 kg/m3
298.15 K, m1 = 0.7168
  mass density: 1027.05 ± 1 kg/m3
308.15 K, m1 = 0.0489
  mass density: 996.21 ± 1 kg/m3
308.15 K, m1 = 0.104
  mass density: 998.6 ± 1 kg/m3
308.15 K, m1 = 0.2
  mass density: 1002.72 ± 1 kg/m3
308.15 K, m1 = 0.292
  mass density: 1006.6 ± 1 kg/m3
308.15 K, m1 = 0.3911
  mass density: 1010.72 ± 1 kg/m3
308.15 K, m1 = 0.471
  mass density: 1013.95 ± 1 kg/m3
308.15 K, m1 = 0.5884
  mass density: 1018.62 ± 1 kg/m3
308.15 K, m1 = 0.6788
  mass density: 1022.22 ± 1 kg/m3
308.15 K, m1 = 0.7168
  mass density: 1023.66 ± 1 kg/m3
310.15 K, m1 = 0.0489
  mass density: 995.5 ± 1 kg/m3
310.15 K, m1 = 0.104
  mass density: 997.89 ± 1 kg/m3
310.15 K, m1 = 0.2
  mass density: 1002 ± 1 kg/m3
310.15 K, m1 = 0.292
  mass density: 1005.88 ± 1 kg/m3
310.15 K, m1 = 0.3911
  mass density: 1009.98 ± 1 kg/m3
310.15 K, m1 = 0.471
  mass density: 1013.21 ± 1 kg/m3
310.15 K, m1 = 0.5884
  mass density: 1017.85 ± 1 kg/m3
310.15 K, m1 = 0.6788
  mass density: 1021.44 ± 1 kg/m3
310.15 K, m1 = 0.7168
  mass density: 1022.88 ± 1 kg/m3
318.15 K, m1 = 0.0489
  mass density: 992.38 ± 1 kg/m3
318.15 K, m1 = 0.104
  mass density: 994.75 ± 1 kg/m3
318.15 K, m1 = 0.2
  mass density: 998.83 ± 1 kg/m3
318.15 K, m1 = 0.292
  mass density: 1002.65 ± 1 kg/m3
318.15 K, m1 = 0.3911
  mass density: 1006.72 ± 1 kg/m3
318.15 K, m1 = 0.471
  mass density: 1009.93 ± 1 kg/m3
318.15 K, m1 = 0.5884
  mass density: 1014.6 ± 1 kg/m3
318.15 K, m1 = 0.6788
  mass density: 1018.12 ± 1 kg/m3
318.15 K, m1 = 0.7168
  mass density: 1019.57 ± 1 kg/m3

## CCCCn1cc[n+](C)c1.[Br-] [1-butyl-3-methylimidazolium bromide] + O
288.15 K, m1 = 0.0493
  mass density: 1001.53 ± 1 kg/m3
288.15 K, m1 = 0.0509
  mass density: 1001.61 ± 1 kg/m3
288.15 K, m1 = 0.0513
  mass density: 1001.57 ± 1 kg/m3
288.15 K, m1 = 0.0518
  mass density: 1001.67 ± 1 kg/m3
288.15 K, m1 = 0.0557
  mass density: 1001.85 ± 1 kg/m3
288.15 K, m1 = 0.1002
  mass density: 1003.91 ± 1.1 kg/m3
288.15 K, m1 = 0.1004
  mass density: 1004.02 ± 1.1 kg/m3
288.15 K, m1 = 0.101
  mass density: 1004.05 ± 1.1 kg/m3
288.15 K, m1 = 0.1073
  mass density: 1004.38 ± 1.1 kg/m3
288.15 K, m1 = 0.1133
  mass density: 1005.08 ± 1.1 kg/m3
288.15 K, m1 = 0.1957
  mass density: 1008.66 ± 1 kg/m3
288.15 K, m1 = 0.2009
  mass density: 1008.82 ± 1 kg/m3
288.15 K, m1 = 0.201
  mass density: 1008.91 ± 1 kg/m3
288.15 K, m1 = 0.2016
  mass density: 1009.08 ± 1 kg/m3
288.15 K, m1 = 0.2345
  mass density: 1010.39 ± 1.1 kg/m3
288.15 K, m1 = 0.2633
  mass density: 1012.6 ± 1 kg/m3
288.15 K, m1 = 0.2918
  mass density: 1013.08 ± 1 kg/m3
288.15 K, m1 = 0.2964
  mass density: 1013.29 ± 1 kg/m3
288.15 K, m1 = 0.2981
  mass density: 1013.19 ± 1 kg/m3
288.15 K, m1 = 0.3007
  mass density: 1013.75 ± 1.1 kg/m3
298.15 K, m1 = 0.0493
  mass density: 999.41 ± 1.1 kg/m3
298.15 K, m1 = 0.0509
  mass density: 999.52 ± 1 kg/m3
298.15 K, m1 = 0.0513
  mass density: 999.46 ± 1 kg/m3
298.15 K, m1 = 0.0518
  mass density: 999.57 ± 1 kg/m3
298.15 K, m1 = 0.0557
  mass density: 999.75 ± 1 kg/m3
298.15 K, m1 = 0.1002
  mass density: 1001.72 ± 1.2 kg/m3
298.15 K, m1 = 0.1004
  mass density: 1001.86 ± 1.2 kg/m3
298.15 K, m1 = 0.101
  mass density: 1001.87 ± 1.2 kg/m3
298.15 K, m1 = 0.1073
  mass density: 1002.22 ± 1 kg/m3
298.15 K, m1 = 0.1133
  mass density: 1002.9 ± 1.1 kg/m3
298.15 K, m1 = 0.1957
  mass density: 1006.35 ± 1 kg/m3
298.15 K, m1 = 0.2009
  mass density: 1006.51 ± 1 kg/m3
298.15 K, m1 = 0.201
  mass density: 1006.62 ± 1 kg/m3
298.15 K, m1 = 0.2016
  mass density: 1006.79 ± 1 kg/m3
298.15 K, m1 = 0.2345
  mass density: 1008.06 ± 1.1 kg/m3
298.15 K, m1 = 0.2633
  mass density: 1010.24 ± 1 kg/m3
298.15 K, m1 = 0.2918
  mass density: 1010.67 ± 1.1 kg/m3
298.15 K, m1 = 0.2964
  mass density: 1010.87 ± 1 kg/m3
298.15 K, m1 = 0.2981
  mass density: 1010.75 ± 1 kg/m3
298.15 K, m1 = 0.3007
  mass density: 1011.3 ± 1 kg/m3
308.15 K, m1 = 0.0493
  mass density: 996.35 ± 1.1 kg/m3
308.15 K, m1 = 0.0509
  mass density: 996.47 ± 1 kg/m3
308.15 K, m1 = 0.0513
  mass density: 996.38 ± 1 kg/m3
308.15 K, m1 = 0.0518
  mass density: 996.52 ± 1 kg/m3
308.15 K, m1 = 0.0557
  mass density: 996.69 ± 1.1 kg/m3
308.15 K, m1 = 0.1002
  mass density: 998.61 ± 1.1 kg/m3
308.15 K, m1 = 0.1004
  mass density: 998.75 ± 1.1 kg/m3
308.15 K, m1 = 0.101
  mass density: 998.72 ± 1.1 kg/m3
308.15 K, m1 = 0.1073
  mass density: 999.1 ± 1.1 kg/m3
308.15 K, m1 = 0.1133
  mass density: 999.78 ± 1.1 kg/m3
308.15 K, m1 = 0.1957
  mass density: 1003.13 ± 1 kg/m3
308.15 K, m1 = 0.2009
  mass density: 1003.27 ± 1 kg/m3
308.15 K, m1 = 0.201
  mass density: 1003.37 ± 1 kg/m3
308.15 K, m1 = 0.2016
  mass density: 1003.57 ± 1 kg/m3
308.15 K, m1 = 0.2345
  mass density: 1004.81 ± 1.1 kg/m3
308.15 K, m1 = 0.2633
  mass density: 1006.95 ± 1 kg/m3
308.15 K, m1 = 0.2918
  mass density: 1007.36 ± 1 kg/m3
308.15 K, m1 = 0.2964
  mass density: 1007.54 ± 1 kg/m3
308.15 K, m1 = 0.2981
  mass density: 1007.42 ± 1 kg/m3
308.15 K, m1 = 0.3007
  mass density: 1007.96 ± 1.1 kg/m3
310.15 K, m1 = 0.0493
  mass density: 995.63 ± 1.1 kg/m3
310.15 K, m1 = 0.0509
  mass density: 995.75 ± 1 kg/m3
310.15 K, m1 = 0.0513
  mass density: 995.68 ± 1 kg/m3
310.15 K, m1 = 0.0518
  mass density: 995.81 ± 1 kg/m3
310.15 K, m1 = 0.0557
  mass density: 995.98 ± 1 kg/m3
310.15 K, m1 = 0.1002
  mass density: 997.87 ± 1.1 kg/m3
310.15 K, m1 = 0.1004
  mass density: 998.04 ± 1.1 kg/m3
310.15 K, m1 = 0.101
  mass density: 998 ± 1.1 kg/m3
310.15 K, m1 = 0.1073
  mass density: 998.38 ± 1.1 kg/m3
310.15 K, m1 = 0.1133
  mass density: 999.06 ± 1.1 kg/m3
310.15 K, m1 = 0.1957
  mass density: 1002.38 ± 1 kg/m3
310.15 K, m1 = 0.2009
  mass density: 1002.54 ± 1 kg/m3
310.15 K, m1 = 0.201
  mass density: 1002.65 ± 1 kg/m3
310.15 K, m1 = 0.2016
  mass density: 1002.83 ± 1 kg/m3
310.15 K, m1 = 0.2345
  mass density: 1004.05 ± 1.1 kg/m3
310.15 K, m1 = 0.2633
  mass density: 1006.2 ± 1 kg/m3
310.15 K, m1 = 0.2918
  mass density: 1006.6 ± 1 kg/m3
310.15 K, m1 = 0.2964
  mass density: 1006.76 ± 1 kg/m3
310.15 K, m1 = 0.2981
  mass density: 1006.65 ± 1 kg/m3
310.15 K, m1 = 0.3007
  mass density: 1007.19 ± 1.1 kg/m3
318.15 K, m1 = 0.0493
  mass density: 992.48 ± 1.1 kg/m3
318.15 K, m1 = 0.0509
  mass density: 992.61 ± 1 kg/m3
318.15 K, m1 = 0.0513
  mass density: 992.51 ± 1 kg/m3
318.15 K, m1 = 0.0518
  mass density: 992.66 ± 1 kg/m3
318.15 K, m1 = 0.0557
  mass density: 992.83 ± 1.1 kg/m3
318.15 K, m1 = 0.1002
  mass density: 994.63 ± 1.1 kg/m3
318.15 K, m1 = 0.1004
  mass density: 994.69 ± 1.1 kg/m3
318.15 K, m1 = 0.101
  mass density: 994.83 ± 1 kg/m3
318.15 K, m1 = 0.1073
  mass density: 995.11 ± 1 kg/m3
318.15 K, m1 = 0.1133
  mass density: 995.72 ± 1.1 kg/m3
318.15 K, m1 = 0.1957
  mass density: 999.01 ± 1 kg/m3
318.15 K, m1 = 0.2009
  mass density: 999.26 ± 1 kg/m3
318.15 K, m1 = 0.201
  mass density: 999.35 ± 1 kg/m3
318.15 K, m1 = 0.2016
  mass density: 999.57 ± 1 kg/m3
318.15 K, m1 = 0.2345
  mass density: 1000.65 ± 1.1 kg/m3
318.15 K, m1 = 0.2633
  mass density: 1002.9 ± 1 kg/m3
318.15 K, m1 = 0.2918
  mass density: 1003.16 ± 1 kg/m3
318.15 K, m1 = 0.2964
  mass density: 1003.29 ± 1 kg/m3
318.15 K, m1 = 0.2981
  mass density: 1003.33 ± 1 kg/m3
318.15 K, m1 = 0.3007
  mass density: 1003.81 ± 1.1 kg/m3

## O [water] + N[C@@H](CO)C(=O)O
308.15 K, m2 = 0
  mass density: 994.06 ± 1 kg/m3
310.15 K, m2 = 0
  mass density: 993.36 ± 1 kg/m3
